This assay has as its system Staphylococcus aureus. In words: Determination of inhibition zone (agar well diffusion, coating / pour plate method). The format is cell-based. To be noted: 24 h, 37° C., 1 day, x ± s, n = 3, positive control ampicillin 5 μg/mL, read-out: inhibition zone diameter. The procedure: Bacterial medium: nutrient agar/broth medium;
Nutrition agar/broth medium: beef paste 3 g, peptone 10 g, sodium chloride 5 g, agar 15 g, add water to 1000 ml, and adjust the pH to 7.4 (nutrient broth without agar).
Preparation of ethyl acetate extract: using rice medium (formulated rice and water), the strain of the present invention was incubated and cultured for 45 days, ethyl acetate was added, ultrasonic extraction was performed twice, 40 minutes for each time, and the extract was combined. The solvent was recovered in a rotary evaporator, and steamed to about 1-2 mL of the extract, and transferred to a collection bottle, the ethyl acetate extract is obtained and placed in a vacuum desiccator. After the solvent was completely evaporated, it was transferred to a refrigerator at 4° C. for use, and was filtrated and sterilizd with the bacteria syringe and filter for use.
Positive control preparation: Ampicillin solution, diluted with sterile water to a concentration of 5 μg/mL of the control solution, UV sterilization for 30 min. […]
The counted bacteria solution was diluted to a final concentration of 10^5˜10^6 cfu/mL, and 200 μL of the prepared bacteria suspension was pipetted onto the plate and uniformly coated with a coater. […] The culture was allowed to stand for 1 day, and the size of inhibition zone was measured. […]

As for `CC1(C)S[C@@H]2[C@H](NC(=O)[C@H](N)c3ccccc3)C(=O)N2[C@H]1C(=O)O` [Positive control, Ampicillin], the zone of inhibition at 5 µg/mL is 19.8 ± 1.7 mm.

These data come from patent US20210130767A1, “Species of Genus Pholiota and Artificial Cultivation Method and Use Thereof” (Guangdong Institute of Microbiology (Guangdong Detection …, priority 2019, published 2021).
